# In PubChem BioAssay (NCI):
# Where “and” joins values, the source holds several entries; their conditions need not be identical. Equal values may be shown once.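 All cell lines were grown in 96-well plates and treated with compound for 48 hours. Abbreviation: GI50, concentration required for 50% inhibition of growth. At the TGI there is no net growth.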
# Columns and labels:
# Experiment in all cases: NCI-60 cell line screen, 48 h
# [1] = test system: A549 NSCLC
# [2] = test system: MCF7 breast
# [3] = test system: SK-MEL-5 melanoma
# [4] = test system: SNB-75 CNS
# [5] = test system: RXF 393 renal
# [6] = test system: U251 CNS
# [7] = test system: SW-620 colon
# [8] = test system: MDA-MB-435
# [9] = test system: LOX IMVI melanoma
# [10] = test system: DU-145 prostate
Compound,TGI [1],TGI [2] [µM],TGI [3] [µM],TGI [4] [µM],TGI [5] [µM],TGI [6] [µM],TGI [7],TGI [8] [µM],TGI [9],GI50 [1] [µM],GI50 [2] [µM],GI50 [3] [µM],GI50 [9] [µM],GI50 [4],GI50 [5] [µM],GI50 [6] [µM],GI50 [7],TGI [10] [µM],GI50 [8] [µM],GI50 [10] [µM]
CCOC(=O)CCC(NC(=O)OCc1ccccc1)C(=O)NC(CCC(=O)OCC)C(=O)NC(CCC(=O)OCC)C(=O)NNC(=O)OC(C)(C)C (configuration not stated),> 100 µM,> 100,> 100,> 100,> 100,> 100,> 100 µM,,,,,,,,,,,,,
Cc1nc2c(n1-c1ccccc1)C(=O)c1ccccc1C2=O,> 100 µM,,> 100,> 100,> 100,> 100,> 100 µM,,,,,,,,,,,,,
CC(C)(CN1CCCCC1)C(/C=C/c1ccccc1)=N\NC(=O)N/N=C(/C=C/c1ccccc1)C(C)(C)CN1CCCCC1,6.12 µM,3.53,3.1,3.05,,3,3.13 µM,2.86,3.32 µM,,,,,,,,,,,
CS(=O)(=O)[O-].CS(=O)(=O)[O-].NC1CCCCC1N.[Pt+4] (configuration not stated),> 100 µM,> 100,> 100,> 100,> 100,> 100,> 100 µM,,> 100 µM,80.3,66.3,48.4,> 61,> 68 µM,> 100,> 87.2,13 µM,,,
O=NN1CCCS1(=O)=O,> 100 µM,> 100,> 100,> 100,> 100,> 100,> 100 µM,,> 100 µM,,,,,,,,,> 100,,
NC(=S)NNC(=S)NC(=O)c1ccco1,> 10 µM,,> 10,> 10,> 10,> 10,> 10 µM,> 10,> 10 µM,,,,,,,,,> 10,,
CCC1(OC(=O)CN)C(=O)OCc2c1cc1n(c2=O)Cc2cc3cc4c(cc3nc2-1)OCO4 (configuration not stated),1.2 µM and 0.347 µM,> 100,0.0759,,0.119,0.0195,> 100 µM and 10.2 µM,,0.155 µM and 0.106 µM,< 0.01,< 0.01,< 0.01,< 0.01,0.0207 µM and < 0.01 µM,0.0158,< 0.01,0.0116 µM and 0.0165 µM,,,
COC(=O)[C@@]1(C)CCC[C@]2(C(=O)O)C3Cc4occc4[C@H](C)[C@@H]3CCC21 (some centres not stated),> 100 µM,,> 100,,> 100,> 100,> 100 µM,> 100,,,,,,,,,,> 100,,
Cc1nc(Nc2nc3ccccc3[nH]2)nc(Cl)c1CCCl,> 100 µM,,> 100,> 100,,> 100,> 100 µM,> 100,,,,,,,,,,> 100,,
Cn1c(=O)n(CC2CS2)c2ccccc21 (configuration not stated),> 100 µM,,,> 100,> 100,,> 100 µM,,> 100 µM,,,,,,,,,,,
C[PH+](c1nc2ccccc2nc1[PH+](C)C(C)(C)C)C(C)(C)C.C[PH+](c1nc2ccccc2nc1[PH+](C)C(C)(C)C)C(C)(C)C.[Au+].[Cl-] (configuration not stated),,,0.105,1.34,0.449,,1.18 µM,0.158,0.155 µM,,,0.0329,0.0396,0.0224 µM,0.103,,0.0356 µM,0.374,0.0345,0.0401
O=C(O)Cc1ccccc1CCc1ccccc1Cl,> 100 µM,,> 100,> 100,> 100,> 100,> 100 µM,,> 100 µM,,,,,,,,,,,
CCOC(=O)c1c(N)sc2c1C(C(=O)OCC)CCC2 (configuration not stated),> 100 µM,> 100,> 100,> 100,> 100,> 100,> 100 µM,,,,,,,,,,,,,
C[C@]12CCC(=O)C=C1CC[C@@H]1[C@@H]2[C@@H](O)C[C@@]2(C)[C@H]1CC[C@]2(O)C(=O)COC(=O)CCC1CCCC1,> 100 µM,,> 100,> 100,> 100,> 100,> 100 µM,,> 100 µM,,,,,,,,,,,
Cn1ccc2c(c1=O)C(=O)OC2(C)C,> 100 µM,> 100,> 100,> 100,> 100,> 100,> 100 µM,,> 100 µM,,,,,,,,,> 100,,
CCN(CC)/[N+]([O-])=N/O,> 100 µM,,> 100,,> 100,,> 100 µM,,> 100 µM,,,,,,,,,,,
O=c1c(O)cccn1C1OC(CO)C(O)C1O (configuration not stated),> 100 µM,,,> 100,> 100,> 100,,,> 100 µM,,,,,,,,,,,
COC(=O)[C@](C)(Cc1ccccc1)NC(=O)[C@@H](C)N1[C@@H](c2ccccc2)COC1(C)C,> 100 µM,> 100,> 100,75.8,> 100,> 100,> 100 µM,> 100,> 100 µM,,,,,,,,,,,
